Test results taken from patent US5492906A, “Derivatives of thieno-triazolo-diazepine and therapeutic compositions containing them” (Societe de Conseils de Recherches et d'Applications …, priority 1989, dated 1996).

Tests used:
[1] = tested on: platelet agregation induced by PAF; experiment: Inhibition of platelet agregation induced by PAF; format: cell-based, New Zealand rabbits; conditions: Oryctolagus cuniculus, New Zealand rabbit platelets, agregometer at 57° C., Table I
Procedure: 1) Inhibition of platelet agregation induced by PAF
This experimentation was conducted according to the method of R. KINLOUGH. RATHBONE, J. P. CAZENAVE, M. PACKHAM and F. MUSTARD, Lab. Invest. 48, 98, 1980. In this test, New Zealand rabbits were used (male New Zealand rabbits of an average weight of 5 kg).
The determinations are made on a chrono-log Coultronics agregometer, at […] coupled with a graphic recorder; the results of these determinations (in molecular concentration) are reported on the table I on the central column.

benzodiazepine receptors = experiment: Inhibition of the binding to benzodiazepine receptors (rat brains); conditions: rat brains incubated 1 h 30 at 4° C.; 3H-RO-15-4788 and 3H-RO-5-4864 as tracers; Table I; read-out: BDZ receptors (inhibition of the binding to benzodiazepine receptors)
From the text: 2) Inhibition of the binding to benzodiazepine receptors
The interest of the previous experimentation depends on the results obtained in this experimentation: as a compound of the invention has a benzodiazepine like structure, it is important to check whether the specific benzodiazepine activity would not appear at the dose where platelet agregation was inhibited.
Therefore, this experimentation has been conducted according to the method of MOHLER H. and RICHARD J. G. Agonist and antagonist benzodiazepine receptor intereaction in vitro, Nature, vol. 294, 763°-765, 1981.
This experimentation was conducted on rat brains incubated 1 h 30 at 4° C. using ^3 H-RO-15-4788 and ^3 H-RO-5-4864 (NEN) as tracers and […] and RO-5-4864 as reference antagonists.
The results in molecular concentration are reported in the table I, on the right hand column.

[2] = tested on: bronchospasm induced by the PAF; experiment: Action on the bronchospasm induced by the PAF in anaesthetized guinea-pigs; format: in vivo, guinea-pig; conditions: male Hartley guinea-pigs, oral, 1 hour before PAF i.v.; for Percentage of action: change versus controls; for Percentage of bronchoconstriction: controls 79. ± 5.55, dose not given
From the text: 3) Action on the bronchospasm induced by the PAF
The PAF intravenous injection in anaesthetized guinea-pigs induces a bronchoconstriction with a leucopeny and a thrombocytopeny, according to the method described in S. DESQUAND, C. TOUVAY, J. RANDON, V. LAGENTE, B. VILAIN, I. MARIDONNEAU-PARINI, A. ETIENNE, J. LEFORT, P. BRAQUET and B. VARGAFTIG. Interference of BN 52021 (Ginkolide B) with the bronchopulmonary effects of PAF-acether in the guinea-pig. Eur. J. Pharmacol. 127: 83-95, 1986.
Male Hartley guinea-pigs (400-450 g) (Charles River) anaesthetized with urethane (2 g/kg IP), then are thracheotomized and submitted to a forced respiration with a breathing pump:70-80 strokes/mn, 1 ml of air/ 100 g per stroke. A catheter is introduced in the jugular vein for the injections, an other is introduced in the carotic artery for blood takings. The initial resistance is kept constant under the pressure of 10 cm of water in accordance with the Konzett and Rossler method and the air in excess is measured with a transducor for bronchospasm UGO BASILE together with an enregistror GEMINI. The guinea-pigs had received an IV injection of pancuronium (Pavulon) to inhibit their spontaneous respiration.
The compound according to the invention and the reference compound WEB 2086 (see the above cited Boehringer patent) have been prepared as suspension in gummy water and administrated orally 1 hour before the stimulation by the PAF.
The bronchoconstriction is appreciated by the calculation of the percentage of bronchoconstriction [formula] wherein A stands for induced bronchoconstriction in mm and B stands for maximum bronchoconstriction in mm.

Toxicity on the mice = conditions: mouse, in vivo, IP route

| Compound | IC50 [1] [nM] | IC50 (benzodiazepine receptors) [nM] | Percentage of action [2] [%] | Percentage of bronchoconstriction [2] [%] | LD50 (Toxicity on the mice) [mg/kg] |
| --- | --- | --- | --- | --- | --- |
| Cc1nnc2n1-c1sc3c(c1C(c1ccccc1Cl)=NC2)CCN(C(=S)NC(C)C)C3 [Example 1, 6-(2-chlorophenyl)-9-isopropylthiocarbamoyl-7,8,9,10-tetrahydro-1-methyl4H-pyrido[4',3':4,5]thieno[3,2-f]1,2,4-triazolo[4,3-a]1,4-diazepine] | 32.8 | 7000 | -70.4 | 23.4 | – |
| Cc1nnc2n1-c1sc3c(c1C(c1ccccc1Cl)=NC2)CCN(C(=O)NC(C)(C)C)C3 [Example 3, 6-(2-chlorophenyl)-9-tertbutylcarbamoyl-7,8,9,10-tetra-hydro-1-methyl4H-pyrido[4',3':4,5]thieno[3,2-f]1,2,4-triazolo [4,3-a]1,4-diazepine] | 17.1 | 430 | -63.7 | 28.7 | – |
| CCCCCCCCCCCCCCCCNC(=S)N1CCc2c(sc3c2C(c2ccccc2Cl)=NCc2nnc(C)n2-3)C1 [Example 5, 6-(2-chlorophenyl)-9-hexadecylthiocarbamoyl-7,8,9,10-tetrahydro-1-methyl4H-pyrido[4',3':4,5]thieno [3,2-f]1,2,4-triazolo [4,3-a]1,4-diazepine] | 297 | 63000 | -61.6 | 30.3 | – |
| COc1ccc(NC(=S)N2CCc3c(sc4c3C(c3ccccc3Cl)=NCc3nnc(C)n3-4)C2)cc1 [Example 7, 6-(2-chlorophenyl)-9-(4-methoxy)phenylthiocarbamoyl-7,8,9,10-tetrahydro-1-methyl4H-pyrido[4',3':4,5]thieno[3,2-f]1,2,4-triazolo[4,3-a]1,4-diazepine] | 301 | 2000 | -83.5 | 13 ± 4.39 | – |
| COc1cc(NC(=O)N2CCc3c(sc4c3C(c3ccccc3Cl)=NCc3nnc(C)n3-4)C2)cc(OC)c1OC [Example 8, 6-(2-chlorophenyl)-9-(3,4,5-trimethoxy)phenylcarbamoyl-7,8,9,10-tetrahydro-1-methyl 4H-pyrido[4',3':4,5]thieno [3,2-f]1,2,4-triazolo [4,3-a]1,4-diazepine] | 11.5 | 1500 | -79.5 | 16.2 | – |
| Cc1nnc2n1-c1sc3c(c1C(c1ccccc1Cl)=NC2)CCN(C(=O)Nc1ccc(C(C)(C)C)cc1)C3 [Example 10, 6-(2-chlorophenyl)-9-(4-tertbutyl)phenylcarbamoyl-7,8,9,10-tetrahydro-1-methyl 4H-pyrido[4',3':4,5]thieno [3,2-f]1,2,4-triazolo[4,3-a]1,4-diazepine] | 8.8 | 5250 | -66.2 | 26.7 | 400 to 1000 |
| Cc1nnc2n1-c1sc3c(c1C(c1ccccc1Cl)=NC2)CCN(C(=O)Nc1ccc(C(F)(F)F)cc1)C3 [Example 14, 6-(2-chlorophenyl)-9-(4-trifluoromethyl)phenylcarbamoyl-7,8,9,10-tetrahydro-1-methyl 4H-pyrido[4',3':4,5]thieno[3,2-f]1,2,4-triazolo[4,3-a]1,4-diazepine] | 150 | 70500 | -38.5 | 48.6 | – |
| Cc1nnc2n1-c1sc3c(c1C(c1ccccc1Cl)=NC2)CCN(C(=O)Nc1cccc(Cl)c1Cl)C3 [Example 17, 6-(2-chlorophenyl)-9-(2,3-dichloro)phenylcarbamoyl-7,8,9,10-tetrahydro-1-methyl 4H-pyrido[4',3':4,5]thieno[3,2-f]1,2,4-triazolo[4,3-a]1,4-diazepine] | 55 | 920 | – | – | 400 to 1000 |
| Cc1nnc2n1-c1sc3c(c1C(c1ccccc1Cl)=NC2)CCN(C(=O)Nc1ccc(Oc2ccccc2)cc1)C3 [Example 18, 6-(2-chlorophenyl)-9-(4-phenoxy)phenylcarbamoyl-7,8,9,10-tetrahydro-1-methyl 4H-pyrido[4',3':4,5]thieno[3,2-f]1,2,4-triazolo[4,3-a]1,4-diazepine] | 33 | 860 | -81.8 | 14.1 | 400 to 1000 |
| Cc1nnc2n1-c1sc3c(c1C(c1ccccc1Cl)=NC2)CCN(C(=S)Nc1ccc(C(C)(C)C)cc1C(C)(C)C)C3 [Example 22, 6-(2-chlorophenyl)-9-(2,4-diterbutyl)phenylthiocarbamoyl-7,8,9,10-tetrahydro-1-methyl-4H-pyrido[4',3':4,5]thieno[3,2-f]1,2,4-triazolo[4,3-a]1,4-diazepine] | 366 | 630 | -67.7 | 25.5 | – |
| Cc1nnc2n1-c1sc3c(c1C(c1ccccc1Cl)=NC2)CCN(C(=S)NCc1ccco1)C3 [Example 24, 6-(2-chlorophenyl)-9-(2-furfuryl)thiocarbamoyl-7,8,9,10-tetrahydro-1-methyl-4H-pyrido[4',3':4,5]thieno[3,2-f]1,2,4-triazolo[4,3-a]1,4-diazepine] | 48 | 650 | -57.9 | 33.3 | – |
| Cc1nnc2n1-c1sc3c(c1C(c1ccccc1Cl)=NC2)CCN(C(=S)NS(=O)(=O)c1ccccc1)C3 [Example 30, 6-(2-chlorophenyl)-9-(phenylsulfonyl)thiocarbamoyl-7,8,9,10-tetrahydro-1-methyl-4H-pyrido[4',3':4,5]thieno[3,2-f]1,2,4-triazolo[4,3-a]1,4-diazepine] | 11 | 630 | -52.9 | 37.2 | – |
| Cc1nnc2n1-c1sc3c(c1C(c1ccccc1Cl)=NC2)CCN(C(=S)NS(=O)(=O)c1ccc[nH]1)C3 [Example 33, 6-(2-chlorophenyl)-9-(2-pyrrolylsulfonyl)thiocarbamoyl7,8,9,10-tetrahydro-1-methyl-4H-pyrido[4',3':4,5]thieno[3,2-f]1,2,4-triazolo[4,3-a]1,4-diazepine] | 205 | 9100 | -71.7 | 22.4 | 400 to 1000 |
| Cc1nnc2n1-c1sc(CCC(=O)N3CCOCC3)cc1C(c1ccccc1Cl)=NC2 [WEB 2086, reference compound] | – | – | -68.0 | 25.3 | – |
